The record followed here is patent publication US6770778B2, “N-(4-substituted phenyl)-anthranilic acid hydroxamate esters” (Pfizer Inc, priority 2002, dated 2004).

In data set [1] the test system is MEK. Kind of data set: Cellular assay for measuring MEK inhibition (inhibition of ERK phosphorylation in C26 cells). The class given is cell-based. The note with it: murine colon 26 (C26) carcinoma cells, 1 hour at 37° C., Western blot of dually phosphorylated ERK1 and ERK2. Here is the method: The evaluation of the compounds as MEK inhibitors is performed in an assay that measures their ability to inhibit phosphorylation of MAP kinase (ERK) in murine colon 26 (C26) carcinoma cells. Since ERK1 and ERK2 represent the only known substrates for MEK, measurement of inhibition of ERK phosphorylation in cells provides direct readout of cellular MEK inhibition by the compounds of the invention. Briefly, the assay involves treating exponentially growing C26 cells with varying concentrations of the test compound (or vehicle control) for 1 hour at 37° C. Cells are then rinsed free of compound/vehicle and lysed in a solution containing 70 mM NaCl, 50 mM glycerol phosphate, 10 mM HEPES, pH 7.4, 1% Triton X-100, 1 mM Na3VO4, 100 μM PMSF, 10 μM leupeptin, and 10 μM pepstatin. Supernatants are then subjected to gel electrophoresis and Western blotting using a primary antibody recognizing dually phosphorylated ERK1 and ERK2. To evaluate total MAPK levels, blots were subsequently ‘stripped’ and re-probed with a 1:1 mixture of polyclonal antibodies recognizing unphosphorylated ERK1 and ERK2.
The inhibition data generated by the above protocol is disclosed in Table 1. If several concentrations of inhibitor were tested, IC50 values (the concentration which gives 50% inhibition) were determined graphically from the dose response curve for % inhibition. Otherwise, percent inhibitions at measured concentrations are reported.
In general terms: A western blot detects proteins with antibodies after separation by electrophoresis.

For orientation: melting point means the temperature of the solid-liquid transition. What is called IC50 is the concentration that gives 50% inhibition. On to `COC(=O)c1ccc(Nc2c(C(=O)NOCCO)ccc(F)c2F)cc1` [Example 1, Methyl 4-[[2.3-difluoro-6-[[(2-hydroxyethoxy)amino]carbonyl]phenyl]-amino]benzoate], for which the melting point was 158 to 160 °C. The compound also came in with a half-maximal inhibitory concentration (IC50) in data set [1] of more than 1000 nM.

`O=C(O)c1ccc(Nc2c(C(=O)NOCCO)ccc(F)c2F)cc1` [Example 2, 4-[[2,3-Difluoro-6-[[(2-hydroxyethoxy)amino]carbonyl]phenyl]amino]-benzoic acid] gave a melting point of 180 to 183 °C. Moreover, half-maximal inhibition in data set [1] (IC50) required 73 nM.

Regarding `COC(=O)c1ccc(Nc2c(C(=O)NOCCO)ccc(F)c2F)c(F)c1` [Example 3, Methyl 4-(2,3-difluoro-6-{[(2-hydroxyethoxy)amino]carbonyl}anilino)-3-fluorobenzoate], the melting point fell in the range of 162 to 165 °C. This compound also registered a concentration for half-maximal inhibition (IC50) in data set [1] of 27 nM. Taken in the same sequence, the figures for `O=C(O)c1ccc(Nc2c(C(=O)NOCCO)ccc(F)c2F)c(F)c1` [Example 4, 4-(2,3-Difluoro-6-{[(2-hydroxyethoxy)amino]carbonyl}anilino)-3-fluorobenzoic acid] were 196 to 200 °C and more than 1000 nM. For `COCC#Cc1ccc(Nc2c(C(=O)NOCCO)ccc(F)c2F)c(F)c1` [Example 5, 3,4-Difluoro-2-[[2-fluoro-4-(3-methoxy-1-propynyl)phenyl]amino]-N-(2-hydroxyethoxy)benzamide] the same measures were 121 to 123 °C and more than 1000 nM. Turning to `CC(=O)c1ccc(Nc2c(C(=O)NOCCO)ccc(F)c2F)c(Cl)c1` [Example 6, 2-(4-Acetyl-2-chloro-phenylamino)-3,4-difluoro-N-(2-hydroxy-ethoxy)-benzamide], the melting point lay within 161.5 to 162.5 °C. `CNC(=O)c1ccc(Nc2c(C(=O)NOCCO)ccc(F)c2F)c(F)c1` [Example 7, 2-{2-fluoro-4-[(methylamino)carbonyl]anilino}-3,4-difluoro-N-(2-hydroxyethoxy)benzamide] yielded a melting point of 197 to 200 °C. The IC50 in data set [1] is more than 10000 nM.
